Assay results: paper PMC12663298, “Sibiriline, a novel dual inhibitor of necroptosis and ferroptosis, prevents RIPK1 kinase activity and (phospho)lipid peroxidation as a potential therapeutic strategy” (Cell Death Discovery, 2025)

Columns and labels:
Format in all cases: biochemical
[1] = target: KIT (Homo sapiens, UniProt P10721); experiment: enzymatic kinase assay (Eurofins) at KM,ATP
[2] = target: JAK2 (Homo sapiens, UniProt O60674); experiment: enzymatic kinase assay (Eurofins) at KM,ATP
[3] = target: T1, DRAK2 (Homo sapiens, UniProt O94768); experiment: enzymatic kinase assay (Eurofins) at KM,ATP
T1 construct: gene STK17B
T1 sequence (O94768 1-372): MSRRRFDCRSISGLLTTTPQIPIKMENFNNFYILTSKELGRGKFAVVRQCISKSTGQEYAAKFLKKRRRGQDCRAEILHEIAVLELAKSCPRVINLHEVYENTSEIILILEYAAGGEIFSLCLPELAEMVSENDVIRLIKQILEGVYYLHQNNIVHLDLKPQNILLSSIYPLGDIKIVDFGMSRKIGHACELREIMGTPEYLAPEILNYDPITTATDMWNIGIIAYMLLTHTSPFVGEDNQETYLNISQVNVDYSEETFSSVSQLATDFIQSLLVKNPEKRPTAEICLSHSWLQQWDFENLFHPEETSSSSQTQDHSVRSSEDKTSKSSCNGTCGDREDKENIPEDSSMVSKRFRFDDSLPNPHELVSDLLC

[4] = target: T2, AURKC (Homo sapiens, UniProt Q9UQB9); experiment: enzymatic kinase assay (Eurofins) at KM,ATP
T2 sequence (Q9UQB9 1-309): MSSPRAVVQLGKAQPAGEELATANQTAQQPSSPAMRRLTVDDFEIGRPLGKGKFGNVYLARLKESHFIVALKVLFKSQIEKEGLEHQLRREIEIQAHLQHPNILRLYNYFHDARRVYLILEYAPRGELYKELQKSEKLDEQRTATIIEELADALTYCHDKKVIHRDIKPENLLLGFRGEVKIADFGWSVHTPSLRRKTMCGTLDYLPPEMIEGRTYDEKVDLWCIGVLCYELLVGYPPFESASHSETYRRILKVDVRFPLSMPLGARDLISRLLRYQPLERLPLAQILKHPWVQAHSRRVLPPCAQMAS

[5] = target: T3, PDGFR-β (Homo sapiens, UniProt P09619); experiment: enzymatic kinase assay (Eurofins) at KM,ATP
T3 construct: gene PDGFRB

[6] = target: ABL1 (Homo sapiens, UniProt P00519); experiment: ADP-Glo kinase assay at KM,ATP
Sequence of ABL1 (P00519 whole entry): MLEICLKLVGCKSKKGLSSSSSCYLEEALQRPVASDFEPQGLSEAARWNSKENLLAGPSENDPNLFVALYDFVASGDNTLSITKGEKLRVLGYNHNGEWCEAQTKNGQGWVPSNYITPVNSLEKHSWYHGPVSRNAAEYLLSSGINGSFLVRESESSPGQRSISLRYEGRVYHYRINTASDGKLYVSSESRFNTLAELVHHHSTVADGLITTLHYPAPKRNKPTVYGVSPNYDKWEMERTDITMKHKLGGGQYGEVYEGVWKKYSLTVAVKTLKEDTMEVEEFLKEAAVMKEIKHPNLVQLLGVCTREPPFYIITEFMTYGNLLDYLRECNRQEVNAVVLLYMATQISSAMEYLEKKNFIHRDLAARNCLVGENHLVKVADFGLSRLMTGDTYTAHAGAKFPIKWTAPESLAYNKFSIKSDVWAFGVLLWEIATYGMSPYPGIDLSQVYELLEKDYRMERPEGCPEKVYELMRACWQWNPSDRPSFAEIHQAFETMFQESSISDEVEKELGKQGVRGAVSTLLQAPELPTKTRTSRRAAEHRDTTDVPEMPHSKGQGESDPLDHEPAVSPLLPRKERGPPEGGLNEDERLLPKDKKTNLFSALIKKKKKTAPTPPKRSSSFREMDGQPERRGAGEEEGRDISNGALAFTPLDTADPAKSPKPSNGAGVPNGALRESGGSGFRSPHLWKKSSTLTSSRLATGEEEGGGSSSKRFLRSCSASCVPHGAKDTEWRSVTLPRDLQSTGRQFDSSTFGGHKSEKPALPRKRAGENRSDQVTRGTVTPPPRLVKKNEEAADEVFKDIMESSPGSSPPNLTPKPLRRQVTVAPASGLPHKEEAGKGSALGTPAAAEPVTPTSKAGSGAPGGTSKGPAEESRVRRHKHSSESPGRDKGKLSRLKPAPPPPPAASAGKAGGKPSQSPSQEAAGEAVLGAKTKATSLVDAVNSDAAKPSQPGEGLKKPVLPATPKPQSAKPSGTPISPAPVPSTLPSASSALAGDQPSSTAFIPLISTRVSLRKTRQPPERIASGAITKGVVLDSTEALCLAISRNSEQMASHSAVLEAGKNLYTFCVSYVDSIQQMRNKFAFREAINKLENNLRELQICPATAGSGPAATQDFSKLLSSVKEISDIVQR

T3 sequence (P09619 33-1106): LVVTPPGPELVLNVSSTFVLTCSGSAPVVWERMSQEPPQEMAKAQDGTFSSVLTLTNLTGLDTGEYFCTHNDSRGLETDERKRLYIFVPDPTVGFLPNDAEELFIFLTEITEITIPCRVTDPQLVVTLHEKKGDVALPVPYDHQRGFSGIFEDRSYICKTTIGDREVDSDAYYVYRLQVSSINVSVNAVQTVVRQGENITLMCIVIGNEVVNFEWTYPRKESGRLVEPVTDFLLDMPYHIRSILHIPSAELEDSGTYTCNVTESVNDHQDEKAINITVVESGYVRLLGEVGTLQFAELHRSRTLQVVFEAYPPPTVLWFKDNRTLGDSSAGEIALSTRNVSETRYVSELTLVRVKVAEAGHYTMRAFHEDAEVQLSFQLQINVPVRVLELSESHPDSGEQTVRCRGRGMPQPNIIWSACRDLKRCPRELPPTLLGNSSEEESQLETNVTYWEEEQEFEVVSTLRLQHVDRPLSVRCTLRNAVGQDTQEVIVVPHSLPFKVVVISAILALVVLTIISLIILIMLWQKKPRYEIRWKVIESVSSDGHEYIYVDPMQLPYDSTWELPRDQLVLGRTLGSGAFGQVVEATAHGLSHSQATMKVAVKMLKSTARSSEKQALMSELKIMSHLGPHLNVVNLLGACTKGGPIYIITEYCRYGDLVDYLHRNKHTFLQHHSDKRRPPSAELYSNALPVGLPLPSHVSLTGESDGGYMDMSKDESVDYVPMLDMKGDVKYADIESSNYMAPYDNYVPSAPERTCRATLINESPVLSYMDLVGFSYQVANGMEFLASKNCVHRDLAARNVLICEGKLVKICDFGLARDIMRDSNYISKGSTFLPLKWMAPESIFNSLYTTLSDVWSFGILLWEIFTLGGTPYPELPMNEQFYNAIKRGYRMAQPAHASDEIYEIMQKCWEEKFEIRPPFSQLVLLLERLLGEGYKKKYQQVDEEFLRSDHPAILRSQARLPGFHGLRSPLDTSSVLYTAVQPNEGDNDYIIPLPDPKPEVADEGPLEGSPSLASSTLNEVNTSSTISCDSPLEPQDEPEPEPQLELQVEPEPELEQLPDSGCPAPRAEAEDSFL
Sequence of KIT (P10721 26-976): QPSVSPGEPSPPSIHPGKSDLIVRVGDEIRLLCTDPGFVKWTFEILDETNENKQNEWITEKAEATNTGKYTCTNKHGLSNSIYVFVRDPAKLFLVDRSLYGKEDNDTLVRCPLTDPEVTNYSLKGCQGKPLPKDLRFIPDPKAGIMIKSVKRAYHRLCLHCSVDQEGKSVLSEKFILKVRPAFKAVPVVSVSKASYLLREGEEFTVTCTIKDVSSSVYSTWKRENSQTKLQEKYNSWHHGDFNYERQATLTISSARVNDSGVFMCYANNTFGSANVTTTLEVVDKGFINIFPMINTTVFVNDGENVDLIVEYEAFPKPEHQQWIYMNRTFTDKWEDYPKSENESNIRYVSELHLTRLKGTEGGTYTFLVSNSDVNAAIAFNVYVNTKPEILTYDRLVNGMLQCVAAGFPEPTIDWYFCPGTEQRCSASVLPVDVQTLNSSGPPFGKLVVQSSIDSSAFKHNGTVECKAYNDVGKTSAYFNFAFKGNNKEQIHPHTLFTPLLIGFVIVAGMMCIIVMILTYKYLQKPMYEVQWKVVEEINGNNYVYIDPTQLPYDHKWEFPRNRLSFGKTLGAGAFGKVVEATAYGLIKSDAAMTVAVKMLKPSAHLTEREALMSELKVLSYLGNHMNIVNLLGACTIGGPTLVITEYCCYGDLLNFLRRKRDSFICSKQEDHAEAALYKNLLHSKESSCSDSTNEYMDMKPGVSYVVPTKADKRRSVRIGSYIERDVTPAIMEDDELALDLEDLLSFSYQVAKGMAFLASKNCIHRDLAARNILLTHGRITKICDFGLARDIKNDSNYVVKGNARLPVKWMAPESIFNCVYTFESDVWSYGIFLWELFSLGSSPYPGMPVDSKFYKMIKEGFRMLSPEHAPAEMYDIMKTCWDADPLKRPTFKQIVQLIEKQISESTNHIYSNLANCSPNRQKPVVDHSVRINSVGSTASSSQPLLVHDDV
Sequence of JAK2 (O60674 whole entry): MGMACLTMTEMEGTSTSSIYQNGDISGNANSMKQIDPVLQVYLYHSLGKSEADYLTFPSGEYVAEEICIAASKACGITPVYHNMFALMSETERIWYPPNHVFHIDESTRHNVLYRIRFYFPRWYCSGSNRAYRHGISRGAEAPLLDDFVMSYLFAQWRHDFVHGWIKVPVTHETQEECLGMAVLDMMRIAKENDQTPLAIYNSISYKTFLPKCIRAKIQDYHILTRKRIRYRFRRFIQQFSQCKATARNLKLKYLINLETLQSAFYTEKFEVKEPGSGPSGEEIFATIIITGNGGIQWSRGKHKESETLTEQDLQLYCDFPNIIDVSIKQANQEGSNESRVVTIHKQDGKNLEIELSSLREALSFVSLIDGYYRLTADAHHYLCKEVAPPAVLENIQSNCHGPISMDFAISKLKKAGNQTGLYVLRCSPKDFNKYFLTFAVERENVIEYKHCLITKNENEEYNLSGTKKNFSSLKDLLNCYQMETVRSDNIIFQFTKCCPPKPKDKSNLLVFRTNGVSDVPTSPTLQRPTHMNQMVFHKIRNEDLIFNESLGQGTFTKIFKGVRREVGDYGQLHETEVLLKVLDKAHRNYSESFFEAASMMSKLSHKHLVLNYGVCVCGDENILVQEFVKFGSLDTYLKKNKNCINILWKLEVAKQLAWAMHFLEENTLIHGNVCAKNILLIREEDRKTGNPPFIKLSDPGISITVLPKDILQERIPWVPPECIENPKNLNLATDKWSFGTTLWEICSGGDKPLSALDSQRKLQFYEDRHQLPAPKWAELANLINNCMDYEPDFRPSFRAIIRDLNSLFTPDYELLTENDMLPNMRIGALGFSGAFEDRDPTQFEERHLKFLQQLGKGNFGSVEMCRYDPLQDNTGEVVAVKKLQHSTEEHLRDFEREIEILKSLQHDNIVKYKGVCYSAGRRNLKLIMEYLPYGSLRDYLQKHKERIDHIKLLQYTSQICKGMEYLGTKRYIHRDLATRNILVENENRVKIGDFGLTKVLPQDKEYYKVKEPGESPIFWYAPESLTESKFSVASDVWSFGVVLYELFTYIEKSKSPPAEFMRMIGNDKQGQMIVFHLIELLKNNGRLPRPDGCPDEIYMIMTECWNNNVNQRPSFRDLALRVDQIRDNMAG

## Oc1ccc(-c2cc3cccnc3[nH]2)cc1 [compound 1, 4-(1H-pyrrolo[2,3-b]pyridin-2-yl)phenol]
[1]
  IC50: All kinases tested showed inhibition in the µM range.
[2]
  IC50: All kinases tested showed inhibition in the µM range.
[3]
  IC50: All kinases tested showed inhibition in the µM range.
[4]
  IC50: All kinases tested showed inhibition in the µM range.
[5]
  IC50: All kinases tested showed inhibition in the µM range.
[6]
  IC50: All kinases tested showed inhibition in the µM range.
